Measurements reported in patent US20230085307A1, “PYRIDAZINONE COMPOUND AND HERBICIDE” (NISSAN CHEMICAL CORPORATION, priority 2019, published 2023).

Tests used:
late watergrass = assay: Test Example 1: herbicidal activity, application before weed generation under submerged conditions (Table 16, symbol A); format: in vivo, late watergrass (Echinochloa oryzicola)
Outline: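 Emulsion formulation, water-diluted to set dose, was put onto the flooded surface (4 cm depth, alluvial soil) the same day weeds were sown and 2.5-leaf rice transplanted. After 3 weeks at 25-30 °C under glass, each species was rated 0 (≤5% kill) to 5 (≥90% kill).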

oval-leafed pondweed = assay: Test Example 2: herbicidal activity, application during weed generation under submerged conditions (Table 17, symbol C); format: in vivo, oval-leafed pondweed (Monochoria vaginalis); details: application during weed generation, submerged conditions
Outline: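 3-wk visual-criteria score after one water-surface dose. Emulsion formulation, water-diluted to set rate; applied at 1–2 leaf stage; alluvial soil, 4 cm standing water; seeds co-sown; greenhouse 25–30° C.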

barnyard grass [1] = assay: Test Example 3: herbicidal effect by foliage application, Wagner pot (Table 18, symbol H); format: in vivo, barnyard grass (Echinochloa crus-galli)
Outline: (§1)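 Plants were sown in alluvial soil held under 0.1–0.5 cm standing water and grown 14 days in a greenhouse at 25–30 °C. An emulsifiable formulation, water-diluted to the set dose, was then sprayed onto the foliage, and effects were scored three weeks later using previously defined criteria.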

Chinese sprangletop = assay: Test Example 3: herbicidal effect by foliage application, Wagner pot (Table 18, symbol D); format: in vivo, chinese sprangletop (Leptochloa chinensis)
Outline: as §1

southern crabgrass [2] = assay: Test Example 4: herbicidal effect by soil treatment (Table 19, symbol F); format: in vivo, southern crabgrass (Digitaria ciliaris)
Outline: (§2)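 Scoring uses the grading scale of an earlier test, three weeks post-application. Treatment consists of spraying a diluted emulsion formulation across the surface of sterilized diluvial soil in which seeds are buried near 1.5 cm deep; boxes are kept in a greenhouse between 25° C. and 30° C.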

green foxtail [3] = assay: Test Example 4: herbicidal effect by soil treatment (Table 19, symbol G); format: in vivo, green foxtail (Setaria viridis)
Outline: as §2

barnyard grass [4] = assay: Test Example 4: herbicidal effect by soil treatment (Table 19, symbol H); format: in vivo, barnyard grass (Echinochloa crus-galli)
Outline: as §2

blackgrass [5] = assay: Test Example 4: herbicidal effect by soil treatment (Table 19, symbol J); format: in vivo, blackgrass (Alopecurus myosuroides)
Outline: as §2

windgrass = assay: Test Example 4: herbicidal effect by soil treatment (Table 19, symbol L); format: in vivo, windgrass (Apera spica-venti)
Outline: as §2

redroot pigweed [6] = assay: Test Example 4: herbicidal effect by soil treatment (Table 19, symbol N); format: in vivo, redroot pigweed (Amaranthus retroflexus)
Outline: as §2

chickweed = assay: Test Example 4: herbicidal effect by soil treatment (Table 19, symbol P); format: in vivo, common chickweed (Stellaria media)
Outline: as §2

southern crabgrass [7] = assay: Test Example 5: herbicidal effect by foliage application, plastic box (Table 20, symbol F); format: in vivo, southern crabgrass (Digitaria ciliaris); details: foliage application, three weeks after application
Outline: (§3)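 Post-emergence foliar test in sterilized diluvial soil. Compound applied as water-diluted emulsion at a predetermined rate to 14-day-old plants; evaluation at three weeks.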

green foxtail [8] = assay: Test Example 5: herbicidal effect by foliage application, plastic box (Table 20, symbol G); format: in vivo, green foxtail (Setaria viridis); details: foliage application, three weeks after application
Outline: as §3

blackgrass [9] = assay: Test Example 5: herbicidal effect by foliage application, plastic box (Table 20, symbol J); format: in vivo, blackgrass (Alopecurus myosuroides); details: foliage application, three weeks after application
Outline: as §3

redroot pigweed [10] = assay: Test Example 5: herbicidal effect by foliage application, plastic box (Table 20, symbol N); format: in vivo, redroot pigweed (Amaranthus retroflexus); details: foliage application, three weeks after application
Outline: as §3

false cleavers = assay: Test Example 5: herbicidal effect by foliage application, plastic box (Table 20, symbol Q); format: in vivo, false cleavers (Galium spurium); details: foliage application, three weeks after application
Outline: as §3

persian speedwell = assay: Test Example 5: herbicidal effect by foliage application, plastic box (Table 20, symbol R); format: in vivo, Persian speedwell (Veronica persica); details: foliage application, three weeks after application
Outline: as §3

[11] = amount of applied herbicide 320 g/ha
[12] = amount of applied herbicide 310 g/ha

| SMILES | Herbicidal effect, A: late watergrass (late watergrass; [11]) | herbicidal effect rating, C: oval-leafed pondweed (oval-leafed pondweed; AAH 320 g/ha) | herbicidal effect on barnyard grass (H) (barnyard grass [1]; 320 g/ha) | herbicidal effect on Chinese sprangletop (D) (Chinese sprangletop; 320 g/ha) | F: southern crabgrass, herbicidal effect grade (southern crabgrass [2]; [11]) | G: green foxtail, herbicidal effect grade (green foxtail [3]; [11]) | H: barnyard grass, herbicidal effect grade (barnyard grass [4]; [11]) | J: blackgrass, herbicidal effect grade (blackgrass [5]; [11]) | L: windgrass, herbicidal effect grade (windgrass; [11]) | N: redroot pigweed, herbicidal effect grade (redroot pigweed [6]; [11]) | P: chickweed, herbicidal effect grade (chickweed; [11]) | F: southern crabgrass, herbicidal effect grade (southern crabgrass [7]; 320 g/ha) | G: green foxtail, herbicidal effect grade (green foxtail [8]; 320 g/ha) | J: blackgrass, herbicidal effect grade (blackgrass [9]; 320 g/ha) | N: redroot pigweed, herbicidal effect grade (redroot pigweed [10]; 320 g/ha) | Q: false cleavers, herbicidal effect grade (false cleavers; 320 g/ha) | R: persian speedwell, herbicidal effect grade (persian speedwell; 320 g/ha) | also measured |
| --- | --- | --- | --- | --- | --- | --- | --- | --- | --- | --- | --- | --- | --- | --- | --- | --- | --- | --- |
| CCOc1ccc(-c2sc3cc(OC)ccc3c2-c2c(O)c(C)nn(C)c2=O)cc1 [3-072] | 1 (Herbicidal rate of 5% or more and less than 20%) | 3 (Herbicidal rate of 40% or more and less than 70%) | 4 (Herbicidal rate of 70% or more and less than 90%) | 3 (Herbicidal rate of 40% or more and less than 70%) | 0 (Herbicidal rate of 5% or less (almost no effect)) | 0 (Herbicidal rate of 5% or less (almost no effect)) | 0 (Herbicidal rate of 5% or less (almost no effect)) | 0 (Herbicidal rate of 5% or less (almost no effect)) | 0 (Herbicidal rate of 5% or less (almost no effect)) | 2 (Herbicidal rate of 20% or more and less than 40%) | 5 (Herbicidal rate of 90% or more (almost completely withered)) | 0 (Herbicidal rate of 5% or less (almost no effect)) | 3 (Herbicidal rate of 40% or more and less than 70%) | 0 (Herbicidal rate of 5% or less (almost no effect)) | 5 (Herbicidal rate of 90% or more (almost completely withered)) | 5 (Herbicidal rate of 90% or more (almost completely withered)) | 5 (Herbicidal rate of 90% or more (almost completely withered)) |  |
| COc1ccc2c(-c3c(O)c(C)nn(C)c3=O)c(-c3ccc(F)cc3OC)sc2c1 [3-076] | 4 (Herbicidal rate of 70% or more and less than 90%) | 4 (Herbicidal rate of 70% or more and less than 90%) | 5 (Herbicidal rate of 90% or more (almost completely withered)) | 3 (Herbicidal rate of 40% or more and less than 70%) | 0 (Herbicidal rate of 5% or less (almost no effect)) | 5 (Herbicidal rate of 90% or more (almost completely withered)) | 3 (Herbicidal rate of 40% or more and less than 70%) | 5 (Herbicidal rate of 90% or more (almost completely withered)) | 5 (Herbicidal rate of 90% or more (almost completely withered)) | 5 (Herbicidal rate of 90% or more (almost completely withered)) | 2 (Herbicidal rate of 20% or more and less than 40%) | 3 (Herbicidal rate of 40% or more and less than 70%) | 5 (Herbicidal rate of 90% or more (almost completely withered)) | 4 (Herbicidal rate of 70% or more and less than 90%) | 5 (Herbicidal rate of 90% or more (almost completely withered)) | 4 (Herbicidal rate of 70% or more and less than 90%) | 4 (Herbicidal rate of 70% or more and less than 90%) |  |
| CCOc1ccccc1-c1sc2cc(OC)ccc2c1-c1c(O)c(C)nn(CC)c1=O [3-085] | 5 (Herbicidal rate of 90% or more (almost completely withered)) | 3 (Herbicidal rate of 40% or more and less than 70%) | 5 (Herbicidal rate of 90% or more (almost completely withered)) | 0 (Herbicidal rate of 5% or less (almost no effect)) | 4 (Herbicidal rate of 70% or more and less than 90%) | 3 (Herbicidal rate of 40% or more and less than 70%) | 3 (Herbicidal rate of 40% or more and less than 70%) | 1 (Herbicidal rate of 5% or more and less than 20%) | 0 (Herbicidal rate of 5% or less (almost no effect)) | 3 (Herbicidal rate of 40% or more and less than 70%) | 3 (Herbicidal rate of 40% or more and less than 70%) | 5 (Herbicidal rate of 90% or more (almost completely withered)) | 4 (Herbicidal rate of 70% or more and less than 90%) | 4 (Herbicidal rate of 70% or more and less than 90%) | 5 (Herbicidal rate of 90% or more (almost completely withered)) | 4 (Herbicidal rate of 70% or more and less than 90%) | 5 (Herbicidal rate of 90% or more (almost completely withered)) |  |
| CCCC(=O)Oc1c(C)nn(C)c(=O)c1-c1c(-c2ccccc2OC)sc2cc(OCC)ccc12 [3-090] |  |  |  |  |  |  |  |  |  |  |  |  |  |  |  |  |  | Herbicidal effect, A: late watergrass (late watergrass; [12]): 5 (Herbicidal rate of 90% or more (almost completely withered)); herbicidal effect rating, C: oval-leafed pondweed (oval-leafed pondweed; AAH 310 g/ha): 5 (Herbicidal rate of 90% or more (almost completely withered)); herbicidal effect on barnyard grass (H) (barnyard grass [1]; 310 g/ha): 5 (Herbicidal rate of 90% or more (almost completely withered)); herbicidal effect on Chinese sprangletop (D) (Chinese sprangletop; 310 g/ha): 5 (Herbicidal rate of 90% or more (almost completely withered)); F: southern crabgrass, herbicidal effect grade (southern crabgrass [2]; [12]): 3 (Herbicidal rate of 40% or more and less than 70%); G: green foxtail, herbicidal effect grade (green foxtail [3]; [12]): 3 (Herbicidal rate of 40% or more and less than 70%); H: barnyard grass, herbicidal effect grade (barnyard grass [4]; [12]): 2 (Herbicidal rate of 20% or more and less than 40%); J: blackgrass, herbicidal effect grade (blackgrass [5]; [12]): 4 (Herbicidal rate of 70% or more and less than 90%); L: windgrass, herbicidal effect grade (windgrass; [12]): 0 (Herbicidal rate of 5% or less (almost no effect)); N: redroot pigweed, herbicidal effect grade (redroot pigweed [6]; [12]): 4 (Herbicidal rate of 70% or more and less than 90%); P: chickweed, herbicidal effect grade (chickweed; [12]): 4 (Herbicidal rate of 70% or more and less than 90%); F: southern crabgrass, herbicidal effect grade (southern crabgrass [7]; 310 g/ha): 3 (Herbicidal rate of 40% or more and less than 70%); G: green foxtail, herbicidal effect grade (green foxtail [8]; 310 g/ha): 4 (Herbicidal rate of 70% or more and less than 90%); J: blackgrass, herbicidal effect grade (blackgrass [9]; 310 g/ha): 4 (Herbicidal rate of 70% or more and less than 90%); N: redroot pigweed, herbicidal effect grade (redroot pigweed [10]; 310 g/ha): 5 (Herbicidal rate of 90% or more (almost completely withered)); Q: false cleavers, herbicidal effect grade (false cleavers; 310 g/ha): 5 (Herbicidal rate of 90% or more (almost completely withered)); R: persian speedwell, herbicidal effect grade (persian speedwell; 310 g/ha): 5 (Herbicidal rate of 90% or more (almost completely withered)) |
| CCOc1ccc2c(-c3c(O)c(C)nn(C)c3=O)c(-c3ccc(OC)cc3)sc2c1 [3-091] | 0 (Herbicidal rate of 5% or less (almost no effect)) | 3 (Herbicidal rate of 40% or more and less than 70%) | 2 (Herbicidal rate of 20% or more and less than 40%) | 0 (Herbicidal rate of 5% or less (almost no effect)) | 2 (Herbicidal rate of 20% or more and less than 40%) | 0 (Herbicidal rate of 5% or less (almost no effect)) | 0 (Herbicidal rate of 5% or less (almost no effect)) | 0 (Herbicidal rate of 5% or less (almost no effect)) | 0 (Herbicidal rate of 5% or less (almost no effect)) | 3 (Herbicidal rate of 40% or more and less than 70%) | 4 (Herbicidal rate of 70% or more and less than 90%) | 2 (Herbicidal rate of 20% or more and less than 40%) | 0 (Herbicidal rate of 5% or less (almost no effect)) | 3 (Herbicidal rate of 40% or more and less than 70%) | 4 (Herbicidal rate of 70% or more and less than 90%) | 5 (Herbicidal rate of 90% or more (almost completely withered)) | 5 (Herbicidal rate of 90% or more (almost completely withered)) |  |
